Source: patent US20220133747A1, “ESTROGEN RECEPTOR INHIBITORS AND USES THEROF” (The Regents of the University of California, priority 2018, published 2022)
“Also recorded” adds a separate entry of the source.

Columns and labels:
ER = molecular target: T1, ER (Homo sapiens, UniProt P03372); test: Specific [3H]estradiol-17β binding competition in MCF-7 breast cancer cells; settings: MCF-7 cells, 10 nM
T1 construct: endogenous in cells; host or cells: MCF-7 human breast cancer cells in suspension (intact cells)
T1 sequence (P03372 1-595): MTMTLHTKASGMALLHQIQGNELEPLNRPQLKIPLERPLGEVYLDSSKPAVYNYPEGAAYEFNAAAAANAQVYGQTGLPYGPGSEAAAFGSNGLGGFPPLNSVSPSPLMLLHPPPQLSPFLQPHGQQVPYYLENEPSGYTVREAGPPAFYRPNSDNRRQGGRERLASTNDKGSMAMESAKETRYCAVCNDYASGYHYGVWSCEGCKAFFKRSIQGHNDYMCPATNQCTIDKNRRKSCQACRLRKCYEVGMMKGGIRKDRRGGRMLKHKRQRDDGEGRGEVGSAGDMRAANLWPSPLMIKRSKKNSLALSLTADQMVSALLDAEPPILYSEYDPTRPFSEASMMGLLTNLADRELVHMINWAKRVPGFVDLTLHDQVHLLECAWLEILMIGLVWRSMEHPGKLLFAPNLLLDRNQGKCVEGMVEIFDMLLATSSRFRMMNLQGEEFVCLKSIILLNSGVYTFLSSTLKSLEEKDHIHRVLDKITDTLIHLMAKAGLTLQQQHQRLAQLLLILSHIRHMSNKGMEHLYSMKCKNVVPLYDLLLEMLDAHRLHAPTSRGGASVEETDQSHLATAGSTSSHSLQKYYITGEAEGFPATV
Procedure: FIGS. 20A-20C show biologic activity of selected SERD candidates. […] ER-positive MCF-7 cells were treated in phenol-red free RPMI 1640 without FBS and containing vehicle control (CON) or 100 nM concentrations of either fulvestrant (FX) or antiestrogens 105, 109, 121, 140, 151, 160 or SERD128 in vitro. After 4 hours, cells were harvested and processed for PAGE and Western immunoblots using ERα antibody (1D5, Thermofisher Scientific). RPL13A was used as a loading control. […] Cells were dosed with either E2 alone or with SERDs combined with E2 in phenol redfree medium with 0.1% dextran-coated charcoal-treated FBS in luminometer plates. Data are presented as relative light units (RLU) relative to that of E2 alone in three replicate assays (4 wells per replicate) f SEM. Treatment with E2 alone induced a 12-fold induction of ER-dependent luciferase activity quantified as RLU relative to vehicle control-treated samples.
Specific estradiol-17β (E2) binding and competition for binding by antiestrogen SERD128 or fulvestrant was assessed in human MCF-7 breast cancer cells using methods as described before. […] Competitive ligand binding to ER-positive MCF-7 cells is detected by the ability of a test compound to displace labeled estradiol-17β from the cells in vitro.

MCF-7/HER2 cells = test: Cell proliferation assay, MCF-7 with HER2-overexpression; assay type: cell-based, human; settings: MCF-7/HER2, 10 nM with 2 nM estradiol-17β, 48 hr
STAT3 = test: Phosphorylated STAT3 in G-MDSC subpopulations, flow cytometry; assay type: cell-based, human; settings: 1 μM in normal medium with GM-CSF and IL6, 6 days
Procedure: Bone marrow cells from three breast cancer patients were incubated with GM-CSF and IL6 in the following groups: normal medium (contains estradiol) in the presence of vehicle (CON), 1 μM fulvestrant (FULV) or 1 μM S128. After 6 days, cells were subjected to flow cytometry using an antibody directed to phosphorylated STAT3 (p-STAT; 1).
FIGS. 22A-22B show expansion of MDSCs is dependent on estrogen signaling and reversed by antiestrogens. […] Retrospectively-collected BM cells from de-identified BC patients were purified by established methods including red blood cell lysis and Ficoll gradients and then incubated with GM-CSF and IL-6 for 6 days in either regular RPMI medium+15% FBS (NM) (contains estrogens), NM with antiestrogens (FULV or SERD128) or in phenol red-free medium with 15% charcoal coated-dextran treated FBS (EFM) (estrogen-depleted) with or without the addition of 100 nM estradiol-17β (EFM+E2). […]
Human myeloid-derived suppressor cells were expanded from bone marrow (BM) specimens of BC patients after standard Ficoll gradient purification and red blood cell lysis. […] After 6 days of culture, cells were harvested, stained with a 14 antibody panel including anti-phospho-STAT3 (pSTAT3) and analyzed by flow cytometry with an LSRII with a 5 lasers (UV, violet, blue, green-yellow and red). […]

C[C@]12C[C@H](Oc3ccc(N)c(C(F)(F)F)c3)[C@@H]3c4ccc(O)cc4CC[C@H]3[C@@H]1CC[C@@H]2O [SERD128, (8S,9S,11S,13S,14S,17S)-11-(4-Amino-3-(trifluoromethyl)phenoxy)-13-methyl-7,8,9,11,12,13,14,15,16,17-decahydro-6H-cyclopenta[a]phenanthrene-3,17-diol]
competition for specific [3H]estradiol-17β (E2) binding (ER): comparable to that of the pure antiestrogen fulvestrant
cell proliferation (% of estradiol-treated controls) (MCF-7/HER2 cells): significantly blocked proliferation; also recorded: antiproliferative action
p-STAT3 median fluorescence intensity in G-MDSC (STAT3): blocks phosphorylation/activation of STAT3; also recorded: especially effective in blocking the phosphorylation and activation of STAT3
p-STAT3 median fluorescence intensity in G-MDSC (STAT3; listed as S128): blocks phosphorylation/activation of STAT3; also recorded: inhibits the STAT signaling pathway
